From patent publication US7495004B2, “Purine derivatives as liver X receptor agonists” (Glaxo Group Limited, priority 2002, dated 2009)

Assays:
[1] = molecular target: T1, human LXRβ ligand binding domain (Homo sapiens, UniProt P55055); experiment: Assay for LXRβ activity (HTRF, SRC-1 peptide recruitment); assay type: biochemical; details: 1 μM; over a background reading of 10000 fluorescence units
T1 construct: made in house; host or cells: E. coli BL21 (DE3), vector pRSETa
T1 sequence (P55055 184-460 limits assumed): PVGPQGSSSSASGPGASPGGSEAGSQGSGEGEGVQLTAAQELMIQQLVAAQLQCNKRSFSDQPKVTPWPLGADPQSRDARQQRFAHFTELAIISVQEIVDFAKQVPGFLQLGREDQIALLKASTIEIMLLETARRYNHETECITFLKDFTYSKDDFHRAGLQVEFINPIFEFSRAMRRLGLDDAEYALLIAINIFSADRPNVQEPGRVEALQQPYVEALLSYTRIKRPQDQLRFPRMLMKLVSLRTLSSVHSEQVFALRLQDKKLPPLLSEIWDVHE
T1 sequence (Q15788 676-700 partner limits assumed): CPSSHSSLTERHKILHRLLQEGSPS
Protocol: A modified polyhistidine tag (MKKGHHHHHHG) (SEQ ID No. 1) was fused in frame to the human LXRβ ligand binding domain (amino acids 185-461 of Genbank accession number U07132) and subeloned into the expression vector pRSETa (Invitrogen) under the control of an IPTG inducible T7 promoter. The human LXRβ ligand binding domain was expressed in E. coli strain BL21 (DE3). Ten-liter fermentation batches were grown in Rich PO4 media with 0.1 mg/mL Ampicillin at 25° C. for 12 hours, cooled to 9° C. and held at that temperature for 36 hours to a density of OD600=14. At this cell density, 0.25 mM IPTG was added and induction proceeded for 24 hours at 9° C., to a final OD600=16. Cells were harvested by centrifugation (20 minutes, 3500 g, 4° C.), and concentrated cell slurries were stored in PBS at −80° C.
Typically 25-50 g of cell paste is resuspended in 250-500 mL TBS, pH 8.0 (25 mM Tris, 150 mM NaCl). Cells are lysed by passing 3 times through an APV Rannie MINI-lab homogenizer, and cell debris is removed by centrifugation (30 minutes, 20,000 g, 4° C.). […] After washing to baseline absorbance with equilibration buffer, the column is washed with approximately one column volume of TBS pH […] containing 95 mM imidazole. […] After washing to baseline absorbance with the dilution buffer the protein is eluted with a gradient from 50-500 mM NaCl. […]

[2] = molecular target: T2, LXRα ligand binding domain (Homo sapiens, UniProt Q13133); experiment: Assay for LXRα activity (HTRF, SRC-1 peptide recruitment); assay type: biochemical; details: 1 μM; over a background reading of 10000 fluorescence units
T2 construct: His tag; made in house
T2 sequence (Q13133 183-447): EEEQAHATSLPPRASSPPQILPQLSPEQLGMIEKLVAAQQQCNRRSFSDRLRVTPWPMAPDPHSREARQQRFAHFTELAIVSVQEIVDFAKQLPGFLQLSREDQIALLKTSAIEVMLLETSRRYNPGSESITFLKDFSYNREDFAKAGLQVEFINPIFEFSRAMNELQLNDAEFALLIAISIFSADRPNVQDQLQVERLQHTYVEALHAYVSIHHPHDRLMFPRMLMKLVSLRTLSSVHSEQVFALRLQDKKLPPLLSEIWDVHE
T2 sequence (Q15788 676-700 partner): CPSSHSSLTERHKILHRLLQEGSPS
Protocol: The assay for LXRα was run according to the procedures of Example 1, above using his-tagged LXRα ligand binding domain (amino acids 183-447 of Genbank accession number U22662, with the 14th amino acid corrected to A from R). Percentage control is relative to 24(S),25-epoxycholesterol.
In this assay 1 μM 24(S),25-epoxycholesterol gave a reading of 20000 fluorescence units over a background reading of 10000 fluorescence units.

**Q.** With C[C@H](CC[C@@H]1OC1(C)C)[C@H]1CC[C@H]2[C@@H]3CC=C4C[C@@H](O)CC[C@]4(C)[C@H]3CC[C@]12C [24(S),25-epoxycholesterol] as the compound, how does the “reading in LXRβ assay” value [1] read?
**A.** 20000 fluorescence units

**Q.** And the “reading in LXRα assay” value [2]?
**A.** 20000 fluorescence units
